Source: publication PMC3973950, “Synthesis of 5-arylidine amino-1,3,4-thiadiazol-2-[(N-substituted benzyol)]sulphonamides endowed with potent antioxidants and anticancer activity induces growth inhibition in HEK293, BT474 and NCI-H226 cells” (Medicinal Chemistry Research, 2013)

Legend:
[1] = Superoxide anion radical scavenging (NBT/NADH/PMS); type: biochemical; conditions: Conc. ± SD; standard catechin; read-out: IC50 inhibitory concentration, Superoxide anion
Protocol: Measurement of superoxide anion scavenging activity of the synthesized compound was taken based on the method described by Nishimiki et al. ([1972]) and slightly modified. […] The reaction mixture was incubated at 25 °C for 5 min, and the absorbance at 560 nm was measured against blank samples. Catechin was used as reference compound. All the experiments were performed in triplicate, and the results were averaged. The percentage of inhibition was determined by comparing the results of control and test samples. The IC50 (nM/mL) value are depicted in Table 1.

[2] = tested on: root meristem cells of Allium cepa; test: In vitro antimitotic activity and cytogenetic analysis, Allium cepa meristem root model; type: cell-based; conditions: compounds 1 mg/mL, PC (EMS) 2 × 10^−2 M; for MI (%) ± SEM (mitotic index): lower MI = higher activity, negative control 6.22
Protocol: Small bulbs (1.5–2.0 cm in diameter) of the common onion, A. cepa (2n = 16), were purchased from vendor at a local market. Prior to initiating the test, the outer scales of the bulbs and the dry bottom plate were removed without destroying the root primordia. The roots of A. cepa were grown in distilled water in Erlenmeyer flasks (200 mL capacity) under laboratory conditions (dark 24 °C). For each synthesized compound sample, after reaching a length of 3 cm (±0.5 cm), a series of six bulbs were placed in distilled water (pH 7.3) for 48 h and then onion roots were treated with the synthesized compound at 1 mg/mL concentrations of each tested compound. The test tubes were kept in an incubator at 22 ± 1 °C, and the test samples were changed daily at the same time. Several of the newly formed root tips were then cut from each bulb and examined for any visible morphological abnormalities. The bulbs with satisfactory root lengths (2–2.5 cm) were used in the study, while those with exceptionally long or short roots were discarded (on average 2–3 bulbs). Therefore, individual sets of five bulbs were used for each extract sample.
Distilled water (pH 7.3) was used as a negative control, and EMS (2 × 10^−2 M) used as a positive control mutagen (Fiskesjo, [1993], [1997]). After 24 h of exposure, several root tips were removed from the bulbs, fixed in 3:1 (v/v) ethanol (90 %)/glacial acetic acid (45 %) and stored overnight at 4 °C. The next day, they were placed in 70 % (v/v) aqueous alcohol and refrigerated until used. Allium roots were softened by digesting with HCl and rinsed the roots in water. After removing the water from the third rinse, the roots were covered with the orcein acetate stain. The roots were incubated in the stain for 12 min. During this time, the very tip of the root begins to turn red as the DNA stains the numerous small actively dividing cells at the tip. A root was transferred to the centre of a clean microscope slide, and a drop of water was added. Using a razor blade most of the unstained part of the root was cut off and discarded. The root tip was covered with a cover slip and then carefully pushed down on the cover slide with the wooden end of a dissecting probe. […] The root tip should spread out to a diameter about 0.5–1 cm. Five slides were prepared per bulb.
The following parameters were used for the determination of cytotoxicity and genotoxicity: • (i) the mitotic index (MI) was calculated as the ratio between the number of mitotic cells and the total number of cells scored and expressed as percentage using following formula as per standard procedures. Mitoticindex=Numberofdividingcells/Totalnumberofcells×100 • (ii) Chromatin aberrations (stickiness, breaks and polar deviation) were used as end points for the determination of cytogenetic effects, and micronuclei (MNC) were scored in interphase cells per 1,000 cells (‰ MNC) (Freshney, [2000]). • (iii) The most frequent abnormalities are shown in microphotographs. After 72 h of exposure to the test samples, the root lengths were measured and used as an index of general toxicity. The results for mitotic index and root length are expressed as percentage of the negative and positive controls. Visible morphological modifications, such as changes in root consistency and colour as well as the presence of swelling (c-tumours), hooks or twists in the roots, were also observed.

[3] = In vitro cytotoxicity by MTT assay, HEK 293; type: cell-based, human; conditions: human, HEK 293 cells, read-out: % cytotoxicity (100 − % cell survival) of HEK 293 cell line
Procedure, shortened: (§1)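 Monolayers seeded at […] (about 10,000 per well) were treated after 24 h with the synthesized compounds and incubated three days. Viability was taken from MTT reduction, with formazan measured at 490 nm.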

[4] = In vitro cytotoxicity by MTT assay, NCI-H226; type: cell-based; conditions: human, NCI-H226 lung cancer cells, 0.015 μM, read-out: % Cytotoxicity (100 − % cell survival) of NCI-H226 cell line
Procedure, shortened: as §1

[5] = tested on: NCI-H226 (lung cancer cell line); test: In vitro cytotoxicity by MTT assay, NCI-H226; type: cell-based; conditions: Homo sapiens, 72 h, read-out: % Cytotoxicity (100 − % cell survival) of NCI-H226 cell line; for cytotoxicity at 0.005 µM: NCI-H226, 0.005 μM; for cytotoxicity at 0.045 µM: NCI-H226, 0.045 μM; for cytotoxicity at 0.13 µM: NCI-H226, 0.13 μM; for cytotoxicity at 0.41 µM: NCI-H226, 0.41 μM; for cytotoxicity at 1.23 µM: NCI-H226, 1.23 μM; for cytotoxicity at 3.7 µM: NCI-H226, 3.7 μM; for cytotoxicity at 11.11 µM: NCI-H226, 11.11 μM; for cytotoxicity at 33.33 µM: NCI-H226, 33.33 μM; for cytotoxicity at 100 µM: NCI-H226, 100 μM
Procedure, shortened: as §1

In the case of `O=C(NS(=O)(=O)c1nnc(N=Cc2ccccc2)s1)c1ccccc1` [Compound 9a, N-{[5-(Benzylidenamino)-1,3,4-thiadiazol-2-yl]sulphonyl} benzamide], the IC50 [1] is reported as 152 ± 14.4 µM, the “Aberrant cells (%) ± SEM” value [2] is reported as 19.28 ± 5.22% and the “Chromosome breaks (%) ± SEM” value [2] is reported as 6.22 ± 1.02%. For the same compound, the “MNC (‰) ± SEM (micronuclei per 1,000 cells)” value [2] was 0.34 ± 0.15 ‰, the “Polar deviations (%) ± SEM” value [2] was 8.62 ± 2.16% and the “Stickiness (%) ± SEM” value [2] was 6.64 ± 2.38%. The “MI (%) ± SEM (mitotic index)” value [2] was 3.22 ± 0.16%, the cytotoxicity at 72 h, 0.005 µM [3] was 37.4% and the cytotoxicity at 72 h, 0.015 µM [3] was 38.2%. For the same compound, the cytotoxicity at 72 h, 0.045 µM [3] was 39.8%, the cytotoxicity at 72 h, 0.13 µM [3] was 40.7% and the cytotoxicity at 72 h, 0.41 µM [3] was 42.4%. It also gave a cytotoxicity at 72 h, 1.23 µM [3] of 43.1%, a cytotoxicity at 72 h, 3.7 µM [3] of 44.2% and a cytotoxicity at 72 h, 11.11 µM [3] of 45.6%. It also gave a cytotoxicity at 72 h, 33.33 µM [3] of 46.2%, a cytotoxicity at 72 h, 100 µM [3] of 50.6% and a cytotoxicity at 72 h, 0.015 µM [4] of 34.8%. It also gave a cytotoxicity at 0.005 µM [5] of 33.3%, a cytotoxicity at 0.045 µM [5] of 35.3% and a cytotoxicity at 0.13 µM [5] of 36.1%. For the same compound, the cytotoxicity at 0.41 µM [5] was 37%, the cytotoxicity at 1.23 µM [5] was 37.9% and the cytotoxicity at 3.7 µM [5] was 38.1%. It also gave a cytotoxicity at 11.11 µM [5] of 39.1%, a cytotoxicity at 33.33 µM [5] of 41.1% and a cytotoxicity at 100 µM [5] of 42.4%. The melting point was 185 to 187 °C.

For `COc1ccccc1C=Nc1nnc(S(=O)(=O)NC(=O)c2ccccc2)s1` [Compound 9c, N-({5-[(2-Methoxybenzylidene)amino]-1,3,4-thiadiazol-2-yl}sulfonyl)benzamide], the IC50 [1] was 128 ± 21.7 µM, the “Aberrant cells (%) ± SEM” value [2] was 38.54 ± 8.18% and the “MNC (‰) ± SEM (micronuclei per 1,000 cells)” value [2] was 0.36 ± 0.14 ‰. For the same compound, the “Polar deviations (%) ± SEM” value [2] was 7.22 ± 2.61%, the “Stickiness (%) ± SEM” value [2] was 28.04 ± 6.34% and the “MI (%) ± SEM (mitotic index)” value [2] was 0.53 ± 0.03%. The cytotoxicity at 72 h, 0.005 µM [3] was 36.8%, the cytotoxicity at 72 h, 0.015 µM [3] was 38.2% and the cytotoxicity at 72 h, 0.045 µM [3] was 40.3%. For the same compound, the cytotoxicity at 72 h, 0.13 µM [3] was 42.1%, the cytotoxicity at 72 h, 0.41 µM [3] was 42.9% and the cytotoxicity at 72 h, 1.23 µM [3] was 43.1%. The cytotoxicity at 72 h, 3.7 µM [3] was 44.3%, the cytotoxicity at 72 h, 11.11 µM [3] was 45.9% and the cytotoxicity at 72 h, 33.33 µM [3] was 47.4%. The cytotoxicity at 72 h, 100 µM [3] was 52.3%, the cytotoxicity at 72 h, 0.015 µM [4] was 33.2% and the cytotoxicity at 0.005 µM [5] was 31.5%. The cytotoxicity at 0.045 µM [5] was 34.1%, the cytotoxicity at 0.13 µM [5] was 35.1% and the cytotoxicity at 0.41 µM [5] was 35.9%. It also gave a cytotoxicity at 1.23 µM [5] of 36.1%, a cytotoxicity at 3.7 µM [5] of 37.7% and a cytotoxicity at 11.11 µM [5] of 38.2%. It also gave a cytotoxicity at 33.33 µM [5] of 40.3% and a cytotoxicity at 100 µM [5] of 43.5%.

In the case of `COc1cc(C=Nc2nnc(S(=O)(=O)NC(=O)c3ccccc3)s2)ccc1O` [Compound 9g, N-({5-[(4-Hydroxy-3-methoxybenzylidene)amino]-1,3,4-thiadiazol-2-yl}sulfonyl)benzamide], the “Aberrant cells (%) ± SEM” value [2] is reported as 40.48 ± 12.94%, the “MNC (‰) ± SEM (micronuclei per 1,000 cells)” value [2] is reported as 0.48 ± 0.32 ‰ and the “Polar deviations (%) ± SEM” value [2] is reported as 10.26 ± 2.13%. The “Stickiness (%) ± SEM” value [2] was 32.24 ± 6.92%, the “MI (%) ± SEM (mitotic index)” value [2] was 0.41 ± 0.04% and the cytotoxicity at 72 h, 0.005 µM [3] was 25.4%. It also gave a cytotoxicity at 72 h, 0.015 µM [3] of 27.6%, a cytotoxicity at 72 h, 0.045 µM [3] of 28.5% and a cytotoxicity at 72 h, 0.13 µM [3] of 30.3%. The cytotoxicity at 72 h, 0.41 µM [3] was 31.1%, the cytotoxicity at 72 h, 1.23 µM [3] was 32.1% and the cytotoxicity at 72 h, 3.7 µM [3] was 32.8%. It also gave a cytotoxicity at 72 h, 11.11 µM [3] of 33.5%, a cytotoxicity at 72 h, 33.33 µM [3] of 34.1% and a cytotoxicity at 72 h, 100 µM [3] of 38.6%. For the same compound, the cytotoxicity at 72 h, 0.015 µM [4] was 33.2%, the cytotoxicity at 0.005 µM [5] was 32.7% and the cytotoxicity at 0.045 µM [5] was 34.1%. It also gave a cytotoxicity at 0.13 µM [5] of 35.1%, a cytotoxicity at 0.41 µM [5] of 36.3% and a cytotoxicity at 1.23 µM [5] of 37.5%. The cytotoxicity at 3.7 µM [5] was 38.6%, the cytotoxicity at 11.11 µM [5] was 39.2% and the cytotoxicity at 33.33 µM [5] was 39.8%. For the same compound, the cytotoxicity at 100 µM [5] was 42.5% and the melting point was 252 to 254 °C.

In the case of `CN(C)c1ccc(C=Nc2nnc(S(=O)(=O)NC(=O)c3ccccc3)s2)cc1` [Compound 9h, N-[(5-{[4-(Dimethylamino)benzylidene]amino}-1,3,4-thiadiazol-2-yl)sulfonyl]benzamide], the “Aberrant cells (%) ± SEM” value [2] is reported as 29.83 ± 5.03%, the “Chromosome breaks (%) ± SEM” value [2] is reported as 2.43 ± 0.67% and the “MNC (‰) ± SEM (micronuclei per 1,000 cells)” value [2] is reported as 0.31 ± 0.14 ‰. For the same compound, the “Polar deviations (%) ± SEM” value [2] was 8.91 ± 1.56%, the “Stickiness (%) ± SEM” value [2] was 16.50 ± 3.23% and the “MI (%) ± SEM (mitotic index)” value [2] was 1.07 ± 0.13%. It also gave a cytotoxicity at 72 h, 0.005 µM [3] of 32%, a cytotoxicity at 72 h, 0.015 µM [3] of 32.9% and a cytotoxicity at 72 h, 0.045 µM [3] of 34.5%. For the same compound, the cytotoxicity at 72 h, 0.13 µM [3] was 34.8%, the cytotoxicity at 72 h, 0.41 µM [3] was 35.1% and the cytotoxicity at 72 h, 1.23 µM [3] was 35.7%. For the same compound, the cytotoxicity at 72 h, 3.7 µM [3] was 35.7%, the cytotoxicity at 72 h, 11.11 µM [3] was 36.2% and the cytotoxicity at 72 h, 33.33 µM [3] was 36.9%. For the same compound, the cytotoxicity at 72 h, 100 µM [3] was 37.6%, the cytotoxicity at 72 h, 0.015 µM [4] was 35% and the cytotoxicity at 0.005 µM [5] was 32.9%. The cytotoxicity at 0.045 µM [5] was 35.4%, the cytotoxicity at 0.13 µM [5] was 36.3% and the cytotoxicity at 0.41 µM [5] was 36.4%. It also gave a cytotoxicity at 1.23 µM [5] of 37.2%, a cytotoxicity at 3.7 µM [5] of 37.5% and a cytotoxicity at 11.11 µM [5] of 37.9%. The cytotoxicity at 33.33 µM [5] was 39.2%, the cytotoxicity at 100 µM [5] was 40% and the melting point was 236 to 238 °C.
